Test results: paper PMC5298035 (Clinical Pharmacology in Drug Development, 2016)
Where a name gives a salt, the structure may show the parent alone. Read-outs that look alike come from different tables or passages of the source.

Assays:
[1] = Phase 1 ethinyl estradiol/norethindrone interaction study: plasma PK; format: in vivo, human; details: for Geometric least-squares mean ratio, AUC0-∞ / Geometric least-squares mean ratio, AUClast / Geometric least-squares mean ratio, Cmax: (90% CI); for AUCτ: n = 23, arithmetic mean (SD)
Safety [2] = format: in vivo, human; details: rifampin study, by treatment period
CYP4A11 = details: pooled human liver microsomes; ref data on file; cited from earlier work
[3] = format: in vivo, human
CYP2C19 [4] = details: cultured human hepatocytes; ref data on file; cited from earlier work
CYP2B6 [5] = details: in vitro; ref unpublished data; cited from earlier work
[6] = format: in vivo, human; remark: listed apart in the source
CYP3A4 [7] = target: T1, CYP3A4 (Homo sapiens, UniProt P08684); experiment: Clinical CYP3A4 drug-drug interaction classification; format: in vivo
T1 sequence (P08684 whole entry): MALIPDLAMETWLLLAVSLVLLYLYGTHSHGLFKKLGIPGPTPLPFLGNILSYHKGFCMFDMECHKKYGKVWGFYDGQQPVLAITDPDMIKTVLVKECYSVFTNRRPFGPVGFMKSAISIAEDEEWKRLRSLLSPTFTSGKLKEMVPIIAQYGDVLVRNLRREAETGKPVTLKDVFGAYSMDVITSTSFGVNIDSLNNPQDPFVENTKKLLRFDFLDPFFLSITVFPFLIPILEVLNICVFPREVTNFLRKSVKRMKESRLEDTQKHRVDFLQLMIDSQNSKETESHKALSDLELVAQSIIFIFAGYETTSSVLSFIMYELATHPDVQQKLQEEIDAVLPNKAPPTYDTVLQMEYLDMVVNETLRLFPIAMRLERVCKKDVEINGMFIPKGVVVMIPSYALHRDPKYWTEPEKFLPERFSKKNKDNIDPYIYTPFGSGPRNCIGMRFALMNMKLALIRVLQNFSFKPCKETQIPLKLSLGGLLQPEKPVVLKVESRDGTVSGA

Safety [8] = format: in vivo, human; details: ethinyl estradiol/norethindrone study, by treatment period
CYP3A7 = details: CYP3A7-expressing human liver microsomes; ref data on file; cited from earlier work
[9] = coadministration with lopinavir/ritonavir; cited from earlier work
CYP2C8 [10] = details: cultured human hepatocytes; ref data on file; cited from earlier work
CYP3A4 [11] = target: T1, CYP3A4; details: CYP3A4-expressing human liver microsomes; ref data on file; cited from earlier work
[12] = active drug released from prodrug; cited from earlier work
Safety [13] = format: in vivo, human; details: ketoconazole study, by treatment period
CYP3A4 [14] = target: T1, CYP3A4; details: cultured human hepatocytes; ref data on file; cited from earlier work
CYP2B6 [15] = details: CYP2B6-expressing human liver microsomes; ref data on file; cited from earlier work
CYP2C9 [16] = details: cultured human hepatocytes; ref data on file; cited from earlier work
CYP2C9 [17] = details: pooled human liver microsomes; ref data on file; cited from earlier work
P-glycoprotein = details: in vitro; ref unpublished data; cited from earlier work
Safety [18] = format: in vivo, human; details: midazolam study, by treatment period
CYP2C19 [19] = details: pooled human liver microsomes; ref data on file; cited from earlier work
CYP2C9 [20] = details: in vitro; ref unpublished data; cited from earlier work
CYP2B6 [21] = details: cultured human hepatocytes; ref data on file; cited from earlier work
CYP2C8 [22] = details: CYP2C8-expressing human liver microsomes; ref data on file; cited from earlier work
CYP2A6 = details: pooled human liver microsomes; ref data on file; cited from earlier work
[23] = Phase 1 rifampin interaction study: plasma PK of isavuconazole; format: in vivo, human
[24] = active drug released from prodrug; cited from earlier work; remark: listed apart in the source
CYP2D6 = details: pooled human liver microsomes; ref data on file; cited from earlier work
CYP3A5 = details: CYP3A5-expressing human liver microsomes; ref data on file; cited from earlier work
CYP1A2 [25] = details: pooled human liver microsomes; ref data on file; cited from earlier work
[26] = cited from earlier work
CYP2E1 = details: pooled human liver microsomes; ref data on file; cited from earlier work
CYP1A2 [27] = details: cultured human hepatocytes; ref data on file; cited from earlier work
esterases = details: in the gut and blood; cited from earlier work
CYP3A4 [28] = details: cited from earlier work
CYP3A4 [29] = details: cited from earlier work; remark: listed apart in the source
[30] = ethinyl estradiol, presence vs absence of isavuconazole
[31] = ethinyl estradiol: + isavuconazole vs alone
[32] = both, human, plasma, po, 200 mg
[33] = isavuconazole + ketoconazole vs isavuconazole alone, (90% CI)
[34] = presence vs absence of ketoconazole 200 mg BID
[35] = coadministration with rifampin 600 mg QD vs isavuconazole alone
[36] = isavuconazole + rifampin vs isavuconazole alone, (90% CI)
[37] = midazolam + isavuconazole vs midazolam alone, (90% CI)
[38] = midazolam, presence vs absence of isavuconazole
[39] = norethindrone, coadministration with isavuconazole vs alone
[40] = norethindrone: + isavuconazole vs alone

## C#C[C@]1(O)CC[C@H]2[C@@H]3CCc4cc(O)ccc4[C@H]3CC[C@@]21C [Ethinyl Estradiol, ethinyl estradiol]
[1]; [30]
  increase in mean AUC0-∞: 8%
  increase in mean AUClast: 10%
  increase in mean Cmax: 14%
[1]; [31]
  Geometric least-squares mean ratio, AUC0-∞: 108 (103, 113) %
  Geometric least-squares mean ratio, AUClast: 110 (104, 116) %
  Geometric least-squares mean ratio, Cmax: 114 (103, 126) %
[1]; female, human, plasma, po
  half-life: 1230 min

## C[C@@H](c1nc(-c2ccc(C#N)cc2)cs1)[C@](O)(Cn1cncn1)c1cc(F)ccc1F [Isavuconazole, isavuconazole]
Safety [2]
  subjects who experienced TEAEs: 19 n
  subjects with drug-related TEAEs: 17 n
CYP4A11
  correlation of isavuconazole metabolism with CYP4A11 activity: No correlations
[3]; [32]
  AUC(0-inf): 84800 ng·h/mL
  AUC(0-t): 64900 ng·h/mL
  Cmax: 2200 ng/mL
  Tmax: 2 h
  half-life: 4.88 days
[3]; isavuconazole 200 mg single oral dose alone, n = 12, arithmetic mean (SD)
  CL/F: 2.5 (0.6) L/h
[3]; [33]
  Geometric least-squares mean ratio, AUC0-∞: 522 (409, 666) %
  Geometric least-squares mean ratio, AUClast: 373 (319, 435) %
  Geometric least-squares mean ratio, Cmax: 109 (93, 127) %
[3]; [34]
  increase in mean AUC0-∞: 422%
  increase in mean AUClast: 273%
  increase in mean Cmax: 9%
CYP2C19 [4]
  increase in CYP2C19 mRNA levels: No isavuconazole‐induced increases
  increase in S-(+)-mephenytoin 4'-hydroxylation activity (CYP2C19): No isavuconazole‐induced increases
CYP2B6 [5]
  substrate of CYP2B6: not a substrate
[6]; both, human, plasma, oral, 200 mg
  Cmax: 5200 ng/mL
[6]; isavuconazole 200 mg QD
  mean AUCτ in the presence vs absence of midazolam (in words): comparable
  mean Cmax in the presence vs absence of midazolam (in words): comparable
CYP3A4 [7]; from midazolam coadministration in healthy adults, in vivo
  classification as inhibitor of CYP3A4: moderate inhibitor
CYP3A4 [7]; from rifampin and ketoconazole coadministration in healthy adults
  classification as substrate of CYP3A4: sensitive substrate
Safety [8]
  subjects who experienced TEAEs: 6 n
  subjects with drug-related TEAEs: 3 subjects
CYP3A7
  ratio of the remaining isavuconazole: > 98%
[9]
  increase in isavuconazole exposure: approximately 2 fold
CYP2C8 [10]
  maximum increase in CYP2C8 mRNA: 4.3 fold
  maximum increase in amodiaquine N-dealkylase activity (CYP2C8): 2.6 fold
CYP3A4 [11]
  ratio of the remaining isavuconazole: 33.8%
[12]
  permeability (in words): highly permeable
Safety [13]
  subjects reporting TEAEs: 2 (16.7%) subjects
CYP3A4 [14]
  increase in CYP3A4 mRNA: ≤ 6.4 fold
  increase in testosterone hydroxylation activity (CYP3A4): up to 3.4 fold
CYP2B6 [15]
  ratio of the remaining isavuconazole: > 98%
CYP2C9 [16]
  maximum increase in CYP2C9 mRNA: 3.1 fold
  maximum increase in diclofenac 4'-hydroxylase activity (CYP2C9): none
CYP2C9 [17]
  correlation of isavuconazole metabolism with CYP2C9 activity: No correlations
P-glycoprotein
  substrate of P-glycoprotein: not a substrate
Safety [18]
  subjects who experienced TEAEs: 10 n
  subjects with drug-related TEAEs: 5 n
CYP2C19 [19]
  correlation of isavuconazole metabolism with CYP2C19 activity: No correlations
CYP2C9 [20]
  substrate of CYP2C9: not a substrate
CYP2B6 [21]
  maximum increase in CYP2B6 mRNA: 11.4 fold
  maximum increase in bupropion hydroxylase activity (CYP2B6): 13.4 fold
CYP2C8 [22]
  ratio of the remaining isavuconazole: > 98%
CYP2A6
  correlation of isavuconazole metabolism with CYP2A6 activity: No correlations
[23]; [35]
  decrease in mean AUC0-∞: 97%
  decrease in mean AUClast: 97%
  decrease in mean AUCτ: 90%
  decrease in mean Cmax: 75%
[23]; [36]
  Geometric least-squares mean ratio, AUC0-∞: 3 (2, 3) %
  Geometric least-squares mean ratio, AUClast: 3 (3, 3) %
  Geometric least-squares mean ratio, AUCτ: 10 (9, 11) %
  Geometric least-squares mean ratio, Cmax: 25 (23, 27) %
[23]; male, human, plasma, po
  Tmax: 2 h
[24]
  solubility (in words): poorly soluble
CYP2D6
  correlation of isavuconazole metabolism with CYP2D6 activity: No correlations
CYP3A5
  ratio of the remaining isavuconazole: 68.4%
CYP1A2 [25]
  correlation of isavuconazole metabolism with CYP1A2 activity: No correlations
[1]; female, human, plasma, oral, 200 mg
  Cmax: 5800 ng/mL
[1]; isavuconazole 200 mg QD + ethinyl estradiol 35 μg/norethindrone 1 mg, day 13
  AUCτ: 81.4 (19.0) h·μg/mL
[1]; isavuconazole 200 mg QD alone, day 12
  AUCτ: 80.8 (18.7) h·μg/mL
[26]
  Oral bioavailability: 98%
  food or pH effect on absorption: no evidence of a clinically relevant food or pH effect
CYP2E1
  correlation of isavuconazole metabolism with CYP2E1 activity: No correlations
CYP1A2 [27]
  maximum increase in CYP1A2 mRNA: 5.4 fold
  maximum increase in phenacetin O-dealkylase activity (CYP1A2): 2.8 fold

## CC(=O)N1CCN(c2ccc(OCC3COC(Cn4ccnc4)(c4ccc(Cl)cc4Cl)O3)cc2)CC1 (centres unmarked) [Ketoconazole, ketoconazole, reference compound]
[3]; ketoconazole + isavuconazole vs ketoconazole alone, 90% CI 105, 134
  Geometric least-squares mean ratio, Cmax: 118%
[3]; ketoconazole + isavuconazole vs ketoconazole alone, 90% CI 112, 144
  Geometric least-squares mean ratio, AUCτ: 127%
Safety [13]
  subjects reporting TEAEs: no subjects

## Cc1ncc2n1-c1ccc(Cl)cc1C(c1ccccc1F)=NC2 [Midazolam, midazolam]
[6]; both, human, plasma, po, 3 mg
  AUC(0-inf): 46 ng·h/mL
  AUC(0-t): 44.5 ng·h/mL
  Cmax: 10.7 ng/mL
  Tmax: 1 h
  half-life: 324 min
[6]; midazolam 3 mg single oral dose alone, day 1, n = 23, arithmetic mean (SD)
  CL/F: 72.1 (24.6) L/h
[6]; [37]
  Geometric least-squares mean ratio, AUC0-∞: 203 (173, 238) %
  Geometric least-squares mean ratio, AUClast: 206 (175, 243) %
  Geometric least-squares mean ratio, Cmax: 172 (144, 205) %
[6]; [38]
  increase in mean AUC0-∞: 103%
  increase in mean AUClast: 106%
  increase in mean Cmax: 72%
Safety [18]
  subjects who experienced TEAEs: 9 n
  subjects with drug-related TEAEs: 6 n

## C#C[C@]1(O)CC[C@H]2[C@@H]3CCC4=CC(=O)CC[C@@H]4[C@H]3CC[C@@]21C [Norethindrone, norethindrone]
[1]; female, human, plasma, po
  Tmax: 1 h
  half-life: 786 min
[1]; [39]
  increase in mean AUC0-∞: 16%
  increase in mean AUClast: 16%
  increase in mean Cmax: 6%
[1]; [40]
  Geometric least-squares mean ratio, AUC0-∞: 116 (109, 123) %
  Geometric least-squares mean ratio, AUClast: 116 (109, 123) %
  Geometric least-squares mean ratio, Cmax: 106 (93, 120) %

## CO[C@H]1/C=C/O[C@@]2(C)Oc3c(C)c(O)c4c(O)c(c(/C=N/N5CCN(C)CC5)c(O)c4c3C2=O)NC(=O)/C(C)=C\C=C\[C@H](C)[C@H](O)[C@@H](C)[C@@H](O)[C@@H](C)[C@H](OC(C)=O)[C@@H]1C [Rifampin, rifampin, reference compound]
Safety [2]
  subjects who experienced TEAEs: 19 n
  subjects with drug-related TEAEs: 7 n

## CNCC(=O)OCc1cccnc1N(C)C(=O)OC(C)[n+]1cnn(C[C@](O)(c2cc(F)ccc2F)[C@@H](C)c2nc(-c3ccc(C#N)cc3)cs2)c1 (some centres unmarked) [isavuconazonium sulfate]
esterases
  hydrolysis of prodrug by esterases: rapid hydrolysis

## CCC(C)n1ncn(-c2ccc(N3CCN(c4ccc(OCC5COC(Cn6cncn6)(c6ccc(Cl)cc6Cl)O5)cc4)CC3)cc2)c1=O (centres unmarked) [itraconazole]
CYP3A4 [28]
  increase in exposure of midazolam on coadministration: up to 10 fold

## CC[C@@H]([C@H](C)O)n1ncn(-c2ccc(N3CCN(c4ccc(OC[C@@H]5CO[C@@](Cn6cncn6)(c6ccc(F)cc6F)C5)cc4)CC3)cc2)c1=O [posaconazole]
CYP3A4 [28]
  increase in exposure of midazolam on coadministration: up to 5 fold

## C[C@@H](c1ncncc1F)[C@](O)(Cn1cncn1)c1ccc(F)cc1F [voriconazole]
CYP3A4 [28]
  increase in midazolam AUC on coadministration: approximately 10 fold
CYP3A4 [29]
  increases in ethinyl estradiol and norethindrone on coadministration: less than 2 fold
